How the values were obtained:
[1] = biological target: T1, NLK (Homo sapiens, UniProt Q9UBE8); experiment: 375-member kinase panel; assay type: biochemical; conditions: Run 1, Run 2; for % enzyme activity: 1 μM; for remaining activity at 1 µM: read-out: % enzyme activity, 1 μM
T1 construct: purchased Reaction Biology Corporation
T1 sequence (Q9UBE8 1-527): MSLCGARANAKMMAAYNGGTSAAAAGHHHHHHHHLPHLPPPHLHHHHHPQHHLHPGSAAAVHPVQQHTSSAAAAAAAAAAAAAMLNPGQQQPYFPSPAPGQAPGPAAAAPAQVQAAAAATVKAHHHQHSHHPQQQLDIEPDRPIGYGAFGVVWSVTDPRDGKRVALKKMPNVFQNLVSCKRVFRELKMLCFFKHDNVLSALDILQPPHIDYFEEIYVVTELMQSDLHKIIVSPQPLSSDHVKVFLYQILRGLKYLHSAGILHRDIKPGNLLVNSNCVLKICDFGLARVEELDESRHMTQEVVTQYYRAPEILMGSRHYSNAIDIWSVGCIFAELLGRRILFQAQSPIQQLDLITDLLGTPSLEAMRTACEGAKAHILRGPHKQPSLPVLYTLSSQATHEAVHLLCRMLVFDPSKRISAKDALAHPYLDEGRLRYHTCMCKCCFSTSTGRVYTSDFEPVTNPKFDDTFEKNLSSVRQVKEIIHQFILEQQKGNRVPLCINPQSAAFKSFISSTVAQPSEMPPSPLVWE

[2] = biological target: ZAK/MLTK (Homo sapiens, UniProt Q9NYL2); experiment: 375-member kinase panel; assay type: biochemical; conditions: Run 1, Run 2; for % enzyme activity: 1 μM; for remaining activity at 1 µM: read-out: % enzyme activity, 1 μM
Sequence of ZAK/MLTK (Q9NYL2 whole entry): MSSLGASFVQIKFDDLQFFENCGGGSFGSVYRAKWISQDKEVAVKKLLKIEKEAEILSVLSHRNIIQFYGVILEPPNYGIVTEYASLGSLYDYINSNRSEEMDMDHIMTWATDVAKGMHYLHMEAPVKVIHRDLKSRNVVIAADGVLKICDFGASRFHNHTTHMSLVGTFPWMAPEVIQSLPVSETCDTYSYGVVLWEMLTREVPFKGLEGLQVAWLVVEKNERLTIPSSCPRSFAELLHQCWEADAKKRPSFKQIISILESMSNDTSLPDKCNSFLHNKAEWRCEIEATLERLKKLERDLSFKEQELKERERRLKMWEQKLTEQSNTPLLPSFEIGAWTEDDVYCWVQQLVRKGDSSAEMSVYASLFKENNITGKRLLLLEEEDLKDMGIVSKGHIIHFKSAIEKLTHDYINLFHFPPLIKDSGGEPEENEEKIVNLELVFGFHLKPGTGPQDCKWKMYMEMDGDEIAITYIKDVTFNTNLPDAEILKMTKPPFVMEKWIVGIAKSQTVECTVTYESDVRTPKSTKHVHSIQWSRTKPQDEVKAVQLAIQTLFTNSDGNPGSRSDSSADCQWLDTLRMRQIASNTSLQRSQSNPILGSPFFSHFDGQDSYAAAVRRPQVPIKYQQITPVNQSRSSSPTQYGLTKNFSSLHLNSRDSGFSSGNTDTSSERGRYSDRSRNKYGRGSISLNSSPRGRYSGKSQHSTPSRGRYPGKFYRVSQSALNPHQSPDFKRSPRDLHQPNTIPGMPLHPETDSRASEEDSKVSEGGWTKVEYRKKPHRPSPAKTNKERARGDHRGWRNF

[3] = 10 mg/kg PO, relative to 8b
[4] = biological target: BLK (Homo sapiens, UniProt P51451); conditions: 1 μM; Run 1, Run 2
[5] = biological target: BRK (Homo sapiens, UniProt Q13882); conditions: 1 μM; Run 1, Run 2
Sequence of BRK (Q13882 whole entry): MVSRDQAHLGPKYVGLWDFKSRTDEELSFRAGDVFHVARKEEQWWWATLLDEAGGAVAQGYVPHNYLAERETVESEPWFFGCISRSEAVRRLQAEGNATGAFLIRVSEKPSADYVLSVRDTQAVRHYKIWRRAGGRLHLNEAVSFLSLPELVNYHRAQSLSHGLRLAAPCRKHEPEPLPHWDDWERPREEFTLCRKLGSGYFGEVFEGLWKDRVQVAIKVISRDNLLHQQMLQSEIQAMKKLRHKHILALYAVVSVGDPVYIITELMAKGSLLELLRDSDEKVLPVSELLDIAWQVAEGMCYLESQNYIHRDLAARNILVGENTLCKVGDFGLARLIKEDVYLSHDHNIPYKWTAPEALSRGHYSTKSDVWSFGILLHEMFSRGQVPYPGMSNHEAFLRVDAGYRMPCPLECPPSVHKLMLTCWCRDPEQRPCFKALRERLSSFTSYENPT

[6] = biological target: CAMK2d (Homo sapiens, UniProt Q13557); conditions: 1 μM; Run 1, Run 2
[7] = biological target: CAMK4 (Homo sapiens, UniProt Q16566); conditions: 1 μM; Run 1, Run 2
[8] = biological target: CDK17/cyclin Y (PCTK2) (Homo sapiens, UniProt Q00537); conditions: 1 μM; Run 1, Run 2
Sequence of CDK17/cyclin Y (PCTK2) (Q00537 whole entry): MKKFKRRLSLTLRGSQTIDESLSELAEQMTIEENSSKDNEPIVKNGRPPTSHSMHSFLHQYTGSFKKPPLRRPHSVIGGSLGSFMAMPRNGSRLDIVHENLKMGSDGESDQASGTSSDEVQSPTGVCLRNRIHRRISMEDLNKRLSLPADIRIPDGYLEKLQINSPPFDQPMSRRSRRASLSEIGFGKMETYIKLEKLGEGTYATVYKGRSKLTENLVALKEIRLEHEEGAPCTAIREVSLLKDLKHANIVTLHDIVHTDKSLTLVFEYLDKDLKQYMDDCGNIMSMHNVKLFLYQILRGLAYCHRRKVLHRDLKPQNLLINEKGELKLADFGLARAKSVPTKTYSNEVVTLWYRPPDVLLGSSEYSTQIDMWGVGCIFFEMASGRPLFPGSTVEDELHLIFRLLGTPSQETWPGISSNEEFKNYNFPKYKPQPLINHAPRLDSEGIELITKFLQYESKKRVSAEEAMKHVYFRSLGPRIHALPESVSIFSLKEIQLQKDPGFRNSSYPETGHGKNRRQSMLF
Sequence of CDK17/cyclin Y (PCTK2) (Q8ND76 whole entry partner): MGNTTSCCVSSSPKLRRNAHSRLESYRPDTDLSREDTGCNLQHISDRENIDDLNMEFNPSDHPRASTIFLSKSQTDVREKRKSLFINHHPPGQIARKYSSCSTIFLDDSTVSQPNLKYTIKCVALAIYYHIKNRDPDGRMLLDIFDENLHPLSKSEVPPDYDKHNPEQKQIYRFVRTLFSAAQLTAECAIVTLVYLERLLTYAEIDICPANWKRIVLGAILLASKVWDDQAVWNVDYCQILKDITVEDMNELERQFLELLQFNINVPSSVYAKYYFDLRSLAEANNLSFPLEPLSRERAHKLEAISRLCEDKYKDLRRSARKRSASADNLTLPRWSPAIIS

[9] = biological target: CDK2/cyclin A (Homo sapiens, UniProt P24941); conditions: 1 μM; Run 1, Run 2
[10] = biological target: DYRK1B (Homo sapiens, UniProt Q9Y463); conditions: 1 μM; Run 1, Run 2
[11] = biological target: T2, DYRK3 (Homo sapiens, UniProt O43781); conditions: 1 μM; Run 1, Run 2
T2 sequence (O43781 1-588): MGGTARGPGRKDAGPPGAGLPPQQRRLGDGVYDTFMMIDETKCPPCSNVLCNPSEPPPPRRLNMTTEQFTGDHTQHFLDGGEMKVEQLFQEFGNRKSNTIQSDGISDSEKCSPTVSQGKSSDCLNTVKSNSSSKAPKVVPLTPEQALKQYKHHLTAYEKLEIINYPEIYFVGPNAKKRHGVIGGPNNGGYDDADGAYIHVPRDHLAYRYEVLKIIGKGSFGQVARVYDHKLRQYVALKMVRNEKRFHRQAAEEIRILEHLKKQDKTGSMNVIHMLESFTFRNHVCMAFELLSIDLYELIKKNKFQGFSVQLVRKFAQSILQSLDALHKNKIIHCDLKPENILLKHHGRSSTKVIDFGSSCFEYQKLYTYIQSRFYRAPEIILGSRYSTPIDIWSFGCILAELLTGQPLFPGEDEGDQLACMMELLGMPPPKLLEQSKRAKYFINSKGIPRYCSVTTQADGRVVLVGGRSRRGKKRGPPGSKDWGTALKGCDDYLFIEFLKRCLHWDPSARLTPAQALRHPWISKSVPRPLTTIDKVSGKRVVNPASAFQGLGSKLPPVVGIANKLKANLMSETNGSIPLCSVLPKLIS

[12] = biological target: MEK1 (Homo sapiens, UniProt Q02750); conditions: 1 μM; Run 1, Run 2
Sequence of MEK1 (Q02750 whole entry): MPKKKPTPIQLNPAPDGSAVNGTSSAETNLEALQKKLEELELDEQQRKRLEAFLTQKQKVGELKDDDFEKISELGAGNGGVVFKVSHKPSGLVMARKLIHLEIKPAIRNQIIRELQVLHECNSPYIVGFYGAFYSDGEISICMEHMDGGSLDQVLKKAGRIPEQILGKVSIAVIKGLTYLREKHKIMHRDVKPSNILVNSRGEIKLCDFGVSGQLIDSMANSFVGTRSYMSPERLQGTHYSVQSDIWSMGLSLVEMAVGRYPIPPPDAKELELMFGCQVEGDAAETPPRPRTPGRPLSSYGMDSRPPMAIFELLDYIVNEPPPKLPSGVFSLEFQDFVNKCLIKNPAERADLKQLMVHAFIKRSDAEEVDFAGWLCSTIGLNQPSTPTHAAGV

[13] = biological target: T3, MYLK4 (Homo sapiens, UniProt Q86YV6); conditions: 1 μM; Run 1, Run 2
T3 sequence (Q86YV6 1-388): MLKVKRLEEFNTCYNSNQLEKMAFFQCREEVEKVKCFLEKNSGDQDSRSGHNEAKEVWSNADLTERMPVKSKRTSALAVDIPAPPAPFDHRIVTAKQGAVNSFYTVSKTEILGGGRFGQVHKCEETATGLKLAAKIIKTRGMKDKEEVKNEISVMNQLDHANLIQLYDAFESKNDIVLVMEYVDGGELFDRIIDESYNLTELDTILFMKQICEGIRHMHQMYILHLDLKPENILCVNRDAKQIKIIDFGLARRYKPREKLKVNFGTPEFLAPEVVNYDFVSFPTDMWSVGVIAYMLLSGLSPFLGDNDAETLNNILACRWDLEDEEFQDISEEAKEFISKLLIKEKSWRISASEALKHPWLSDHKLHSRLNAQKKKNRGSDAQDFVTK

[14] = biological target: RON/MST1R (Homo sapiens, UniProt Q04912); conditions: 1 μM; Run 1, Run 2
[15] = biological target: TRKA (Homo sapiens, UniProt P04629); conditions: 1 μM; Run 1, Run 2
Sequence of TRKA (P04629 33-796): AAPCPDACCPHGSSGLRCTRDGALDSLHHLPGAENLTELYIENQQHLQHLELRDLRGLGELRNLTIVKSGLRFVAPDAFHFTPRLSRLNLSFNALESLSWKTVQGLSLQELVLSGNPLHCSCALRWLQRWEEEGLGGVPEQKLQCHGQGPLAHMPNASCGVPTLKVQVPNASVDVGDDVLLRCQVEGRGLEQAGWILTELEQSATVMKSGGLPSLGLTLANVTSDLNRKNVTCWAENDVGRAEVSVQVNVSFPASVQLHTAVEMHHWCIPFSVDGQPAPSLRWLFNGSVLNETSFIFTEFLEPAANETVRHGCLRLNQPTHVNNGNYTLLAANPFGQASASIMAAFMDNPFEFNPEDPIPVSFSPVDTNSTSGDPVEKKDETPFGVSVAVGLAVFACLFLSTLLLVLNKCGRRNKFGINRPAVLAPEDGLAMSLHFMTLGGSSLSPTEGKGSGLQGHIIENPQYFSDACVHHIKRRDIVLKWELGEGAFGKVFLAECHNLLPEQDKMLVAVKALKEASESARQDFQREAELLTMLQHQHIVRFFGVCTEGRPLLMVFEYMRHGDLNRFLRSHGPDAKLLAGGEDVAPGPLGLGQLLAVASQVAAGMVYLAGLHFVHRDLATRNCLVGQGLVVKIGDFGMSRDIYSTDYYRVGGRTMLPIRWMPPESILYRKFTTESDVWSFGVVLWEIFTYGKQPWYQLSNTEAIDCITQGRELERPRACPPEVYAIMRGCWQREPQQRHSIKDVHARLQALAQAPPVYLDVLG

[16] = in vitro; conditions: human, Caco-2, pH 7.4
[17] = biological target: LOK/STK10 (Homo sapiens, UniProt O94804); experiment: biochemical; conditions: read-out: % enzyme activity, 1 μM; Run 1, Run 2
Sequence of LOK/STK10 (O94804 whole entry): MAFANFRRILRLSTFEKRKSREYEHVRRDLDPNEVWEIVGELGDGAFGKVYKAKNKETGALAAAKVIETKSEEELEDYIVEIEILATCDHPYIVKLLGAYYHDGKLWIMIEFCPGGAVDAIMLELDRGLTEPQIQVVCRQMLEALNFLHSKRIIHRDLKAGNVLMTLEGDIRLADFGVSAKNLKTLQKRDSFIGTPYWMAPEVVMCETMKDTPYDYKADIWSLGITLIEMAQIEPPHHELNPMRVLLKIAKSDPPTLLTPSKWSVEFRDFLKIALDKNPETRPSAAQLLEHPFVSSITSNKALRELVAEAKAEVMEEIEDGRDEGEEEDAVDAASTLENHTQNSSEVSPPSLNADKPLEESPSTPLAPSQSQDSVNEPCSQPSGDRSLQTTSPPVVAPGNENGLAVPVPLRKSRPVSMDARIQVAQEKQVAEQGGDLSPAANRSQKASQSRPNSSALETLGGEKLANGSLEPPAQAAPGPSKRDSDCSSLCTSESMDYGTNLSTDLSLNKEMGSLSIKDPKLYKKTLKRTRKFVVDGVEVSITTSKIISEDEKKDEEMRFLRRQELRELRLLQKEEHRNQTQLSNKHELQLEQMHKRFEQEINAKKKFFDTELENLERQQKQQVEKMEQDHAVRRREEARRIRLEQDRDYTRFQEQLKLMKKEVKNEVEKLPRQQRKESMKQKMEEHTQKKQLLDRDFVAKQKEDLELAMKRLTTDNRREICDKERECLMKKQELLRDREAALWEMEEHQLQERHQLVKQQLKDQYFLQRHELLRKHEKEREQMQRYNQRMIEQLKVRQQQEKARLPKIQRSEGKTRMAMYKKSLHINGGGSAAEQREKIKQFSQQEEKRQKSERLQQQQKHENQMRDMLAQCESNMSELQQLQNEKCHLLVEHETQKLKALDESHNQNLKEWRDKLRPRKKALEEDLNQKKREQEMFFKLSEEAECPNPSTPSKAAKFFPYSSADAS

[18] = biological target: LYN B (Homo sapiens, UniProt P07948); experiment: biochemical; conditions: read-out: % enzyme activity, 1 μM; Run 1, Run 2
Sequence of LYN B (P07948 1-491 isoform P07948-2): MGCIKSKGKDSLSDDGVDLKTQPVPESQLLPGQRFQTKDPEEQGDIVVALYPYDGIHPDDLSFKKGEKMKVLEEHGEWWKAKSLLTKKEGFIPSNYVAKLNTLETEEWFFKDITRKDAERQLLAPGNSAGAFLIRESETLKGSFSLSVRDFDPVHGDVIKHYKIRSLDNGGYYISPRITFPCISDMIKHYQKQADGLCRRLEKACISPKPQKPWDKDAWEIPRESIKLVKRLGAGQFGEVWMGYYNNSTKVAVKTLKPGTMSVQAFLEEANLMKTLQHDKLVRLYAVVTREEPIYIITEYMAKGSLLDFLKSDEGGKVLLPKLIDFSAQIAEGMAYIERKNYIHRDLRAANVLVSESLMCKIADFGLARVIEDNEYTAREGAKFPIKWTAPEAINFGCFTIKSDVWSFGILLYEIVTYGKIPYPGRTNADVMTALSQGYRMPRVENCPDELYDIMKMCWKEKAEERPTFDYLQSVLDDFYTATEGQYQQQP

[19] = biological target: MLCK/MYLK (Homo sapiens, UniProt Q15746); experiment: biochemical; conditions: read-out: % enzyme activity, 1 μM; Run 1, Run 2
[20] = biological target: NEK7 (Homo sapiens, UniProt Q8TDX7); experiment: biochemical; conditions: read-out: % enzyme activity, 1 μM; Run 1, Run 2
[21] = biological target: ROS/ROS1 (Homo sapiens, UniProt P08922); experiment: biochemical; conditions: read-out: % enzyme activity, 1 μM; Run 1, Run 2
[22] = system: NanoBRET ALK2
[23] = biological target: CYP2B6 (Homo sapiens, UniProt P20813); conditions: read-out: CYP2B6 IC50; human liver microsomes

| Structure (SMILES) | % enzyme activity [1] | remaining activity at 1 µM [1] | % enzyme activity [2] | remaining activity at 1 µM [2] | % enzyme activity [5] | % enzyme activity [6] | % enzyme activity [7] | % enzyme activity [8] | % enzyme activity [9] | % enzyme activity [10] | % enzyme activity [11] | % enzyme activity [12] | % enzyme activity [13] | % enzyme activity [14] | % enzyme activity [15] | remaining activity at 1 µM [17] | remaining activity at 1 µM [18] | remaining activity at 1 µM [19] | remaining activity at 1 µM [20] | remaining activity at 1 µM [21] | further results |
| --- | --- | --- | --- | --- | --- | --- | --- | --- | --- | --- | --- | --- | --- | --- | --- | --- | --- | --- | --- | --- | --- |
| COc1cc(-c2cncc(-c3ccc(N4CCN(C)CC4)cc3)c2C)cc(F)c1C(N)=O [Compound 26a, 2-Fluoro-6-methoxy-4-(4-methyl-5-(4-(4-methylpiperazin-1-yl)phenyl)pyridin-3-yl)benzamide] | 20.81% | 22% | 30.86% | 31.3% | 58.28% | 94.73% | 98.68% | 95.45% | 97.95% | 39.80% | 88.30% | 97.44% | 95.79% | 97.00% | 90.11% | 51.8% | 99.2% | 106% | 97.6% | 87.7% | fold increase in AUCinf [3]: > 13 fold; fold increase in Cmax [3]: greater than 17 fold; % enzyme activity [4]: 95.94%; efflux ratio [16]: < 3 |
| COc1cc(-c2cncc(-c3ccc(N4C[C@@H](C)N(C)[C@@H](C)C4)cc3)c2C)cc(F)c1C(N)=O [Compound 26c, 2-Fluoro-6-methoxy-4-(4-methyl-5-(4-((3R,5S)-3,4,5-trimethylpiperazin-1-yl)phenyl)pyridin-3-yl)benzamide] | 47.74% | 50.4% | 46.59% | 46.6% | 73.52% | 95.15% | 100.90% | 99.91% | 98.65% | 58.52% | 96.01% | 93.40% | 102.67% | 104.29% | 94.00% | 68.7% | 98.2% | 103% | 97.4% | 97.4% | IC50 [22]: 100 nM; IC50 [23]: > 50000 nM |
